Laboratory results taken from US20050101595A1, “N-containing cycloalkyl-substituted amino-thiazole derivatives and pharmaceutical compositions for inhibiting cell proliferation and methods for their use” (PFIZER INC., priority 2003, published 2005).
Where a name gives a salt, the structure may show the parent alone. Read-outs that look alike come from different tables or passages of the source.

Key:
[1] = biological target: human CDK4 and genetically truncated (1-264) cyclin D3 (Homo sapiens, UniProt P11802); test: Inhibition of CDK4/Cyclin D Retinoblastoma Kinase Activity; assay type: biochemical; details: for Ki: apparent Ki, CDK4/truncated cyclin D3, Rb fragment substrate, 25 μM ATP
human CDK4 and genetically truncated (1-264) cyclin D3, sequence (P11802 whole entry, the tested form may be a part): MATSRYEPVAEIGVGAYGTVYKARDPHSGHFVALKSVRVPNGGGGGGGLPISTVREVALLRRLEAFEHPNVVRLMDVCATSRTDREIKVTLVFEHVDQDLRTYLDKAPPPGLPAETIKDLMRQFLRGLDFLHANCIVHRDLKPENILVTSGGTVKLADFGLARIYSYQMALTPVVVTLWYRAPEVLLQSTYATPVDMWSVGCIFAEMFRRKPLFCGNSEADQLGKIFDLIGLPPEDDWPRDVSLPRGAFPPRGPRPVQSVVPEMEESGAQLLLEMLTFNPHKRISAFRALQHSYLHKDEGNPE
human CDK4 and genetically truncated (1-264) cyclin D3, sequence (P30281 1-264 partner): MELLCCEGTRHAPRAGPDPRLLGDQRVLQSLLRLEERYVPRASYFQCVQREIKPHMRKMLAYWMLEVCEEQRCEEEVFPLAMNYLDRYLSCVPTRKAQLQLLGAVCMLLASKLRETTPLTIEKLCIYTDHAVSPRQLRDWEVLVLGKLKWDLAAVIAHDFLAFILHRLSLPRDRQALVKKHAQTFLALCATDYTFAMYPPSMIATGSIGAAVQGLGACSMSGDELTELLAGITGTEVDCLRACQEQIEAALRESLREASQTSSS
How it was run: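 Read-out: 32P/33P incorporation into Rb fragment (386-928) captured on nitrocellulose, phosphorimager. Enzyme 5 nM CDK4/cyclin D3(1-264) from insect cells; ATP 25 μM, pH 7.4, 30 °C, 20 min (60 min for tight binders). Ki from competitive fits.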

[2] = tested on: HCT-116 cell line; test: Inhibition of cell growth, tetrazolium salt (MTT) assay; assay type: cell-based; details: for IC50: Homo sapiens, HCT-116, 120 h, MTT, three to five days, read-out: HCT-116 IC50; for HCT-116 % Inhibition at 0.25 μM: 0.25 μM compound
How it was run: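 MTT colorimetric viability: three-to-five-day compound exposure in 0.5% (v/v) DMSO at 37° C, MTT 0.2 mg/mL for the last 4 h, A540 compared with vehicle-treated cells.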

[3] = biological target: CDK2/Cyclin A (Homo sapiens, UniProt P24941); test: Inhibition of CDK2/Cyclin A Retinoblastoma Kinase Activity; assay type: biochemical; details: for Ki: apparent Ki, CDK2/proteolyzed cyclin A, Rb fragment substrate, 25 μM ATP; for CDK2 % Inhibition At 0.03 μM: Table 2
How it was run: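 Human CDK2, baculovirus/insect-cell expressed, complexed with proteolyzed cyclin A (10 nM or 19 nM CDK2) phosphorylates an Rb fragment with 25 μM [32P/33P]ATP at pH 7.4, 30° C, for 60 or 75 minutes under initial-rate conditions. Filter-captured radioactivity is read by phosphorimager; apparent Ki from competitive-inhibition fits.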

[4] = 0.1 μM compound, HCT-116, Table 4

SMILES | Ki [1] [µM] | IC50 ([2]; first HCT-116 column (c4)) [µM] | IC50 ([2]; second HCT-116 column (c5)) [µM] | Ki [3] [µM] | other results
Nc1nc(NC2CCN(S(=O)(=O)c3ccc(CCCN4CCCCC4)nc3)CC2)sc1C(=O)c1c(F)cccc1F [Example I14, 1-(4-Amino-2-{1-[6-(3-piperidin-1-yl-propyl)-pyridine-3-sulfonyl]-piperidin-4-ylamino}-thiazol-5-yl)-1-(2,6-difluoro-phenyl)-methanone Trifluoroacetic Acid Salt] | 0.00057 | 0.14 | 0.3 | 0.0012 | –
Nc1nc(NC2CCN(S(=O)(=O)Nc3ccccc3)CC2)sc1C(=O)c1c(F)cccc1F [Example E2, 4-[4-Amino-5-(2,6-difluoro-benzoyl)-thiazol-2-ylamino]-piperidine-1-sulfonic acid phenylamide] | 0.0039 | 0.68 | 1.3 | 0.0012 | –
Nc1nc(NC2CCN(S(=O)(=O)c3ccc(N4CCN(C=O)CC4)nc3)CC2)sc1C(=O)c1c(F)cccc1F [Example G16, Trifluoroacetic Acid Salt] | 0.00063 | 0.29 | > 5 | 0.00051 | –
CC(C)=CCCC(C)CC(=O)N1CCC(Nc2nc(N)c(C(=O)c3c(F)cccc3F)s2)CC1 (stereo not drawn) [Example R170] | – | – | – | – | CDK4 % Inhibition at 0.03 μM ([1]; at 0.03 μM): 22%; HCT-116 % Inhibition at 0.1 μM ([2]; HCT-116 cells, at 0.1 μM): 0%; HCT-116 5 Inhibition at 0.25 μM ([2]; HCT-116 cells): 23; CDK2 % Inhibition at 0.03 μM ([3]; at 0.03 μM): 21%
Cc1cccc(C(=O)N2CCC(Nc3nc(N)c(C(=O)c4c(F)cccc4F)s3)CC2)c1 [Example Q25] | – | – | – | – | CDK4 % Inhibition at 0.03 μM ([1]; 0.03 μM compound, Table 4): 60%; HCT-116 % Inhibition at 0.1 μM [2, 4]: 31%; HCT-116 % Inhibition at 0.25 μM ([2]; HCT-116, Table 4): 85%; CDK2 % Inhibition at 0.03 μM ([3]; 0.03 μM compound, Table 4): 30%
CN1CCCC1CCSc1ccc(S(=O)(=O)N2CCC(Nc3nc(N)c(C(=O)c4c(F)cccc4F)s3)CC2)cn1 (stereo not drawn) [Example L6, 1-[4-Amino-2-(1-{6-[2-(1-methyl-pyrrolidin-2-yl)-ethylsulfanyl]-pyridine-3-sulfonyl}-piperidin-4-ylamino)-thiazol-5-yl]-1-(2,6-difluoro-phenyl)-methanone Dihydrochloride.] | 0.00095 | 0.075 | 0.3 | 0.0015 | –
COc1cc(C(=O)N2CCC(Nc3nc(N)c(C(=O)c4c(F)cccc4F)s3)CC2)ccc1C [Example D12, 1-[4-Amino-2-{1-[-(3-methoxy-4-methyl-phenyl)-methanoyl]-piperidin-4-ylamino}-thiazol-5-yl)-1-(2,6-difluoro-phenyl)-methanone Trifluoroacetic Acid Salt] | 0.014 | 0.12 | 0.32 | 0.029 | –
CCN1CCN(C(=O)N2CCC(Nc3nc(N)c(C(=O)c4c(F)cccc4F)s3)CC2)C(=O)C1=O [Example R83] | – | – | – | – | CDK4 % Inhibition at 0.03 μM ([1]; at 0.03 μM): 52%; HCT-116 % Inhibition at 0.1 μM ([2]; HCT-116 cells, at 0.1 μM): 0%; HCT-116 5 Inhibition at 0.25 μM ([2]; HCT-116 cells): 45; CDK2 % Inhibition at 0.03 μM ([3]; at 0.03 μM): 21%
COc1cccc(CC(=O)N2CCC(Nc3nc(N)c(C(=O)c4c(F)cccc4F)s3)CC2)c1 [Example Q79] | – | – | – | – | CDK4 % Inhibition at 0.03 μM ([1]; 0.03 μM compound, Table 4): 59%; HCT-116 % Inhibition at 0.1 μM [2, 4]: 5%; HCT-116 % Inhibition at 0.25 μM ([2]; HCT-116, Table 4): 33%; CDK2 % Inhibition at 0.03 μM ([3]; 0.03 μM compound, Table 4): 51%
Nc1nc(NC2CCN(S(=O)(=O)CCc3ccccn3)CC2)sc1C(=O)c1c(F)cccc1F [Example F28, 1-{4-Amino-2-[1-(2-pyridin-2-yl-ethanesulfonyl)-piperidin-4-ylamino]-thiazol-5-yl}-1-(2,6-difluoro-phenyl)-methanone] | 0.0081 | 0.65 | 1.3 | 0.0036 | –
CC(=O)Nc1ccc(S(=O)(=O)N2CCCC(Nc3nc(N)c(C(=O)c4c(F)cccc4F)s3)C2)cc1 (stereo not drawn) [Example F36, N-(4-{3-[4-Amino-5-(2,6-difluoro-benzoyl)-thiazol-2-ylamino]-piperidine-1-sulfonyl}-phenyl)-acetamide] | 0.78 | > 5 | > 5 | 0.48 | –
Nc1nc(NC2CCN(C(=O)c3ccncc3)CC2)sc1C(=O)c1c(F)cccc1F [Example C13] | 0.018 | 2.8 | 5 | 0.053 | –
Nc1nc(NC2CCN(Cc3ccncc3)CC2)sc1C(=O)c1c(F)cccc1F [Example M2, 1-[4-Amino-2-(1-pyridin-4-ylmethyl-piperidin-4-ylamino)-thiazol-5-yl]-1-(2,6-difluoro-phenyl)-methanone.] | 0.0335 | 2.1 | 5 | 0.433 | –
CCCc1c(C(=O)N2CCC(Nc3nc(N)c(C(=O)c4c(F)cccc4F)s3)CC2)cnn1-c1ccccc1 [Example R71] | – | – | – | – | CDK4 % Inhibition at 0.03 μM ([1]; at 0.03 μM): 51%; HCT-116 % Inhibition at 0.1 μM ([2]; HCT-116 cells, at 0.1 μM): 0%; HCT-116 5 Inhibition at 0.25 μM ([2]; HCT-116 cells): 44; CDK2 % Inhibition at 0.03 μM ([3]; at 0.03 μM): 33%
Nc1nc(NC2CCN(S(=O)(=O)c3ccc(CCN4CCC(O)C4)nc3)CC2)sc1C(=O)c1c(F)cccc1F (stereo not drawn) [Example N7, [4-Amino-2-(1-{6-[2-(3-hydroxy-pyrrolidin-1-yl)-ethyl]-pyridine-3-sulfonyl}-piperidin-4-ylamino)-thiazol-5-yl]-(2,6-difluoro-phenyl)-methanone Hydrochloride Salt.] | 0.00035 | 0.89 | 4 | 0.00093 | –
CN(C)CC(=O)N1CCC(Nc2nc(N)c(C(=O)c3c(F)cccc3F)s2)CC1 [Example D2, (4-[4-Amino-5-(2,6-difluoro-benzoyl)-thiazol-2-ylamino}-piperidin-1-yl)-2-dimethylamino-ethanone] | 0.12 | 1.9 | 5 | 1.3 | –
COc1ccc(Oc2ccc([N+](=O)[O-])cc2C(=O)N2CCC(Nc3nc(N)c(C(=O)c4c(F)cccc4F)s3)CC2)cc1 [Example R40] | – | – | – | – | CDK4 % Inhibition at 0.03 μM ([1]; at 0.03 μM): 66%; HCT-116 % Inhibition at 0.1 μM ([2]; HCT-116 cells, at 0.1 μM): 0%; HCT-116 5 Inhibition at 0.25 μM ([2]; HCT-116 cells): 43; CDK2 % Inhibition at 0.03 μM ([3]; at 0.03 μM): 41%
Nc1nc(NC2CCN(C(=O)c3ccc(F)cc3C(F)(F)F)CC2)sc1C(=O)c1c(F)cccc1F [Example R36] | – | – | – | – | CDK4 % Inhibition at 0.03 μM ([1]; at 0.03 μM): 17%; HCT-116 % Inhibition at 0.1 μM ([2]; HCT-116 cells, at 0.1 μM): 0%; HCT-116 5 Inhibition at 0.25 μM ([2]; HCT-116 cells): 51; CDK2 % Inhibition at 0.03 μM ([3]; at 0.03 μM): 21%
Nc1nc(NC2CCN(S(=O)(=O)CCN3CCCC3)CC2)sc1C(=O)c1c(F)cccc1F [Example K35, 1-{4-Amino-2-[1-(2-pyrrolidin-1-yl-ethanesulfonyl)-piperidin-4-ylamino]-thiazol-5-yl}-1-(2,6-difluoro-phenyl)-methanone.] | 0.0011 | 0.14 | 0.45 | 0.003 | –
C[C@@H]1CN(c2ncc(S(=O)(=O)N3CCC(Nc4nc(N)c(C(=O)c5c(F)cccc5F)s4)CC3)cn2)C[C@H](C)N1 [Example G33, (4-Amino-2-{1-[2-(3,5-dimethyl-piperazine-1-yl)-pyrimidine-5-sulfonyl]-piperidine-4-ylamino}-thiazol-5-yl)-(2,6-difluoro-phenyl)-methanone Hydrochloride Salt] | 0.0003 | 0.051 | 0.8 | 0.001 | –
Nc1nc(NC2CCN(C(=O)c3cccnc3Sc3ccc(Cl)cc3)CC2)sc1C(=O)c1c(F)cccc1F [Example R43] | – | – | – | – | CDK4 % Inhibition at 0.03 μM ([1]; at 0.03 μM): 2%; HCT-116 % Inhibition at 0.1 μM ([2]; HCT-116 cells, at 0.1 μM): 4%; HCT-116 5 Inhibition at 0.25 μM ([2]; HCT-116 cells): 46; CDK2 % Inhibition at 0.03 μM ([3]; at 0.03 μM): −73%
Nc1nc(NC2CCN(C(=O)OCc3ccc([N+](=O)[O-])cc3)CC2)sc1C(=O)c1c(F)cccc1F [Example Q85] | – | – | – | – | CDK4 % Inhibition at 0.03 μM ([1]; 0.03 μM compound, Table 4): 55%; HCT-116 % Inhibition at 0.1 μM [2, 4]: 1%; HCT-116 % Inhibition at 0.25 μM ([2]; HCT-116, Table 4): 31%; CDK2 % Inhibition at 0.03 μM ([3]; 0.03 μM compound, Table 4): 42%
CN(C)CCCc1ccc(S(=O)(=O)N2CCC(Nc3nc(N)c(C(=O)c4c(F)cccc4F)s3)CC2)cc1 [Example I10, 1-(4-Amino-2-{1-[4-(3-dimethylamino-propyl)-benzenesulfonyl]-piperidin-4-ylamino}-thiazol-5-yl)-1-(2,6-difluoro-phenyl)-methanone D-Glucuronic Acid Salt] | 0.00068 | 0.2 | 1.9 | 0.0012 | –
Cc1cc(C)cc(NC(=O)N2CCC(Nc3nc(N)c(C(=O)c4c(F)cccc4F)s3)CC2)c1 [Example O49] | – | – | – | – | CDK4 % Inhibition at 0.03 μM ([1]; 0.03 μM compound, Table 2): −1%; HCT-116 % Inhibition at 0.25 μM ([2]; HCT-116, Table 2): 20%; CDK2 % Inhibition At 0.03 μM ([3]; 0.03 μM compound): 33%
Nc1nc(NC2CCN(S(=O)(=O)c3ccc(Br)cc3)CC2)sc1C(=O)c1c(F)cccc1F [Example P12] | – | – | – | – | CDK4 % Inhibition at 0.03 μM ([1]; 0.03 μM compound, Table 3): 54%; HCT-116 % Inhibition at 0.1 μM ([2]; 0.1 μM compound, HCT-116, Table 3): 24%; HCT-116 % Inhibition at 0.25 μM ([2]; HCT-116, Table 3): 29%; CDK2 % Inhibition at 0.03 μM ([3]; 0.03 μM compound, Table 3): 54%
COc1cccc(NC(=O)N2CCC(Nc3nc(N)c(C(=O)c4c(F)cccc4F)s3)CC2)c1 [Example O15] | – | – | – | – | CDK4 % Inhibition at 0.03 μM ([1]; 0.03 μM compound, Table 2): 4%; HCT-116 % Inhibition at 0.25 μM ([2]; HCT-116, Table 2): 13%; CDK2 % Inhibition At 0.03 μM ([3]; 0.03 μM compound): 36%
Nc1nc(NC2CCN(C(=O)NCCCl)CC2)sc1C(=O)c1c(F)cccc1F [Example O32] | – | – | – | – | CDK4 % Inhibition at 0.03 μM ([1]; 0.03 μM compound, Table 2): 12%; HCT-116 % Inhibition at 0.25 μM ([2]; HCT-116, Table 2): 99%; CDK2 % Inhibition At 0.03 μM ([3]; 0.03 μM compound): 30%
